Structures are written as SMILES. *1 amine or outer side, *2 acyl side, *3 side chain or, on linkers, in order; H or OH if unused. Where a SMILES comes first, the peptide text is derived from it. Bridges are numbered along the chain shown (N, C = ends). [ ]: non-standard residue; d: D form. The star is where a group is joined. ξ: configuration not given here. Phe(3-OMe,4-CONHMe) = CNC(=O)c1ccc(C[C@H](N)C(=O)O)cc1OC; NMePhe(3-Cl) = CN[C@@H](Cc1cccc(Cl)c1)C(=O)O; X7 = O=C(C[C@H](COCCO)N[*:1])[*:2]; NMeF = CN[C@@H](Cc1ccccc1)C(=O)O; NMeGABA = CN(CCCC(=O)[*:2])[*:1]; NMeI = CC[C@H](C)[C@H](NC)C(=O)O; NMeL = CN[C@@H](CC(C)C)C(=O)O; Thr(3ξ) = CC(O)[C@H](N)C(=O)O; NMeV = CN[C@H](C(=O)O)C(C)C; Piperidide = C1CCN(*)CC1; NBuGly = CCCCNCC(=O)O; NPrGly = CCCNCC(=O)O; Sar = CNCC(=O)O; tBu = CC(C)(C)*

The series can be described thus: in vitro. The conditions noted are these: human, Caco-2, Caco-2 (cm/sec).
The Papp is the rate of passage across a membrane or cell layer, normalised by area and donor concentration. High values mean fast passage, low ones slow passage. Consider `CCCN1CC(=O)N(C)[C@@H](CC(C)C)C(=O)N[C@@H](CC(C)C)C(=O)N(C)[C@@H](Cc2ccccc2)C(=O)N(C)[C@@H](CC(C)C)C(=O)N[C@H](C(=O)N2CCCCC2)CC(=O)N[C@H](CC(C)C)C(=O)N(C)[C@@H](Cc2ccccc2)C(=O)N[C@@H](COCCO)CC(=O)N(C)[C@@H](CC(C)C)C(=O)N[C@@H]([C@@H](C)O)C1=O` [AP20] ([dL][NMeF][X7][NMeL]T[NPrGly][NMeL]L[NMeF][NMeL]D-Piperidide; lactam N-11), for which the Papp was found to be 0.37 ×10⁻⁶ cm/s.

The compound `CCCCN1CC(=O)N(C)[C@@H](CC(C)C)C(=O)N[C@@H](COCCO)CC(=O)N(C)[C@@H](Cc2ccccc2)C(=O)N(C)[C@@H](CC(C)C)C(=O)N[C@H](C(=O)N2CCCCC2)CC(=O)N[C@H](CC(C)C)C(=O)N(C)[C@@H](CC(C)C)C(=O)N[C@@H](Cc2ccccc2)C(=O)N(C)[C@@H](CC(C)C)C(=O)N[C@@H]([C@@H](C)O)C1=O` [AP21] ([dL][NMeL]F[NMeL]T[NBuGly][NMeL][X7][NMeF][NMeL]D-Piperidide; lactam N-11) registered a Papp of 0.21 ×10⁻⁶ cm/s.

In turn, `CC[C@H](C)[C@@H]1NC(=O)[C@H](CC(C)C)N(C)C(=O)CCCN(C)C(=O)C[C@@H](C(=O)N2CCCCC2)NC(=O)[C@H](CC(C)C)N(C)C(=O)[C@H](CC(C)C)N(C)C(=O)[C@H]([C@@H](C)O)NC(=O)[C@H](CC(C)C)N(C)C(=O)C[C@H](COCCO)NC(=O)[C@H](CC(C)C)N(C)C(=O)[C@H](Cc2cccc(Cl)c2)N(C)C1=O` [AP22] ([NMeGABA][NMeL]I[NMePhe(3-Cl)][NMeL][X7][NMeL]T[NMeL][NMeL]D-Piperidide; lactam N-11) came in with a Papp of 0.23 ×10⁻⁶ cm/s.

Consider `CCCCN1CC(=O)N(C)[C@@H](CC(C)C)C(=O)N[C@H](C(=O)N2CCCCC2)CC(=O)N(C)[C@@H](CC(C)C)C(=O)N[C@@H](COCCO)CC(=O)N(C)[C@@H](CC(C)C)C(=O)N(C)[C@@H](Cc2ccccc2)C(=O)N[C@@H](CC(C)C)C(=O)N(C)[C@@H](Cc2ccccc2)C(=O)N(C)[C@@H](CC(C)C)C(=O)N[C@@H]([C@@H](C)O)C1=O` [AP23] ([NMeL][X7][NMeL][NMeF]L[NMeF][NMeL]T[NBuGly][NMeL]D-Piperidide; lactam N-11), for which the Papp came out at 0.43 ×10⁻⁶ cm/s.

`CCCN1CC(=O)N(C)[C@@H](CC(C)C)C(=O)N[C@H](C(=O)N2CCCCC2)CC(=O)N(C)[C@@H](CC(C)C)C(=O)N[C@@H](Cc2ccccc2)C(=O)N(C)[C@@H](CC(C)C)C(=O)N(C)[C@@H](CC(C)C)C(=O)N[C@@H](COCCO)CC(=O)N(C)[C@@H](Cc2ccccc2)C(=O)N(C)[C@@H](CC(C)C)C(=O)N[C@@H]([C@@H](C)O)C1=O` [AP24] ([NMeL]F[NMeL][NMeL][X7][NMeF][NMeL]T[NPrGly][NMeL]D-Piperidide; lactam N-11) registered a Papp of 0.42 ×10⁻⁶ cm/s.

Turning to `CCCCN1CC(=O)N(C)[C@@H](Cc2ccccc2)C(=O)N[C@@H](COCCO)CC(=O)N(C)[C@@H](CC(C)C)C(=O)N[C@@H]([C@@H](C)O)C(=O)N(CCC)CC(=O)N(C)[C@@H](Cc2ccccc2)C(=O)N(C)[C@@H](CC(C)C)C(=O)N[C@@H](CC(C)C)C(=O)N(C)[C@@H](CC(C)C)C(=O)N[C@H](C(=O)N2CCCCC2)CC1=O` [AP25] ([NBuGly][NMeF][X7][NMeL]T[NPrGly][NMeF][NMeL]L[NMeL]D-Piperidide; lactam N-11), the Papp amounted to 0.62 ×10⁻⁶ cm/s.

In turn, `CCCCN1CC(=O)N(C)[C@@H](Cc2ccccc2)C(=O)N[C@@H]([C@@H](C)CC)C(=O)N(C)[C@@H](CC(C)C)C(=O)N[C@@H](C(C)O)C(=O)N(CCC)CC(=O)N(C)[C@@H](Cc2ccccc2)C(=O)N(C)[C@@H](CC(C)C)C(=O)N[C@@H](COCCO)CC(=O)N(C)[C@@H](CC(C)C)C(=O)N[C@H](C(=O)N2CCCCC2)CC1=O` (stereo partly drawn) [AP26] ([NBuGly][NMeF]I[NMeL][Thr(3ξ)][NPrGly][NMeF][NMeL][X7][NMeL]D-Piperidide; lactam N-11) came in with a Papp of 0.37 ×10⁻⁶ cm/s.

In turn, `CCCCN1CC(=O)N(C)[C@@H](CC(C)C)C(=O)N[C@@H](COC(C)(C)C)C(=O)N(C)[C@@H](Cc2ccccc2)C(=O)N(C)[C@@H](CC(C)C)C(=O)N[C@H](C(=O)N2CCCCC2)CC(=O)N[C@H](C(C)C)C(=O)N(C)[C@@H](C(C)C)C(=O)N[C@@H](Cc2ccc(C(=O)NC)c(OC)c2)C(=O)N(C)[C@@H](CC(C)C)C(=O)N[C@@H]([C@@H](C)O)C1=O` [AP27] ([dV][NMeV][Phe(3-OMe,4-CONHMe)][NMeL]T[NBuGly][NMeL]S(tBu)[NMeF][NMeL]D-Piperidide; lactam N-11) returned a Papp of 0.91 ×10⁻⁶ cm/s.

The compound `CCCCN1CC(=O)N(C)[C@@H](CC(C)C)C(=O)N[C@@H](Cc2ccc(C(=O)NC)c(OC)c2)C(=O)N(C)[C@@H](CC(C)C)C(=O)N(C)[C@@H](CC(C)C)C(=O)N[C@H](C(=O)N2CCCCC2)CC(=O)N[C@H](CC(C)C)C(=O)N(C)[C@@H](Cc2ccccc2)C(=O)N[C@@H](C(C)C)C(=O)N(C)[C@@H](CC(C)C)C(=O)N[C@@H]([C@@H](C)O)C1=O` [AP28] ([dL][NMeF]V[NMeL]T[NBuGly][NMeL][Phe(3-OMe,4-CONHMe)][NMeL][NMeL]D-Piperidide; lactam N-11) had a Papp of 0.38 ×10⁻⁶ cm/s.

For the compound `CCCCN1CC(=O)N(C)[C@@H](CC(C)C)C(=O)N[C@@H](COC(C)(C)C)C(=O)N(C)[C@@H]([C@@H](C)CC)C(=O)N(C)[C@@H](CC(C)C)C(=O)N[C@H](C(=O)N2CCCCC2)CC(=O)N[C@H](C)C(=O)N(C)[C@@H](Cc2ccccc2)C(=O)N[C@@H](Cc2ccc(C(=O)NC)c(OC)c2)C(=O)N(C)[C@@H](CC(C)C)C(=O)N[C@@H]([C@@H](C)O)C1=O` [AP29] ([dA][NMeF][Phe(3-OMe,4-CONHMe)][NMeL]T[NBuGly][NMeL]S(tBu)[NMeI][NMeL]D-Piperidide; lactam N-11), the Papp worked out at 0.36 ×10⁻⁶ cm/s.

Compound `CC[C@H](C)[C@@H]1NC(=O)[C@H](CC(C)C)N(C)C(=O)CCCN(C)C(=O)C[C@@H](C(=O)N2CCCCC2)NC(=O)[C@H](CC(C)C)N(C)C(=O)[C@H](CC(C)C)N(C)C(=O)[C@H]([C@@H](C)O)NC(=O)[C@H](CC(C)C)N(C)C(=O)[C@H](Cc2ccc(C(=O)NC)c(OC)c2)NC(=O)[C@H](CC(C)C)N(C)C(=O)[C@H](Cc2ccccc2)N(C)C1=O` [AP30] ([NMeGABA][NMeL]I[NMeF][NMeL][Phe(3-OMe,4-CONHMe)][NMeL]T[NMeL][NMeL]D-Piperidide; lactam N-11) displayed an apparent permeability (Papp) of 0.19 ×10⁻⁶ cm/s.

The compound `CNC(=O)c1ccc(C[C@@H]2NC(=O)[C@H](CC(C)C)N(C)C(=O)[C@H](CC(C)C)N(C)C(=O)[C@H](CC(C)C)NC(=O)[C@H](CC(C)C)N(C)C(=O)C[C@@H](C(=O)N3CCCCC3)NC(=O)[C@H](CC(C)C)N(C)C(=O)CN(C)C(=O)[C@H](C(C)O)NC(=O)[C@H](C(C)C)N(C)C(=O)[C@H](CC(C)C)N(C)C2=O)cc1OC` (stereo partly drawn) [AP32] ([NMeL]L[NMeL][NMeL][Phe(3-OMe,4-CONHMe)][NMeL][NMeV][Thr(3ξ)][Sar][NMeL]D-Piperidide; lactam N-11) showed a Papp of 1.3 ×10⁻⁶ cm/s.

`CCCCN1CC(=O)N(C)[C@@H](CC(C)C)C(=O)N(C)[C@@H](CC(C)C)C(=O)N[C@@H](COC(C)(C)C)C(=O)N(C)[C@@H](CC(C)C)C(=O)N[C@H](C(=O)N2CCCCC2)CC(=O)N(C)CC(=O)N(C)[C@@H](Cc2cccc(Cl)c2)C(=O)N[C@@H](Cc2ccc(C(=O)NC)c(OC)c2)C(=O)N(C)[C@@H](CC(C)C)C(=O)N[C@@H]([C@@H](C)O)C1=O` [AP33] ([Sar][NMePhe(3-Cl)][Phe(3-OMe,4-CONHMe)][NMeL]T[NBuGly][NMeL][NMeL]S(tBu)[NMeL]D-Piperidide; lactam N-11): the Papp amounted to 0.61 ×10⁻⁶ cm/s.

(Values after patent publication US20230096766A1, “AMINO ACID HAVING FUNCTIONAL GROUP CAPABLE OF INTERMOLECULAR HYDROGEN BONDING, PEPTIDE COMPOUND CONTAINING SAME AND METHOD FOR PRODUCTION THEREOF” (Chugai Seiyaku Kabushiki Kaisha, priority 2018, published 2023).)
